Assay results from ChEMBL document CHEMBL3272010, “Antimycotic imidazoles. 3. Synthesis and antimycotic properties of 1-[2-(aryloxyalkyl)-2-phenylethyl]-1H-imidazoles” (1977).
Activity calls are given as the source filed them. No cut-off for these calls is given here.

What was measured:
Aspergillus fumigatus = assay: Antifungal activity against Aspergillus fumigatus assessed as lowest dose required to total inhibition of fungal growth; assay type: functional
Candida tropicalis = assay: Antifungal activity against Candida tropicalis assessed as lowest dose required to total inhibition of fungal growth; assay type: functional
Cryptococcus neoformans = assay: Antifungal activity against Cryptococcus neoformans assessed as lowest dose required to total inhibition of fungal growth; assay type: functional
Trichophyton rubrum = assay: Antifungal activity against Trichophyton rubrum assessed as lowest dose required to total inhibition of fungal growth; assay type: functional
[1] = system: Staphylococcus haemolyticus; assay: Antibaterial activity against Staphylococcus haemolyticus assessed as lowest dose required to total inhibition of bacterial growth; assay type: functional
Streptococcus pyogenes = assay: Antibaterial activity against Streptococcus pyogenes assessed as lowest dose required to total inhibition of bacterial growth; assay type: functional
Candida albicans [2] = assay: Antifungal activity against Candida albicans infected in guinea pig at 10 mg/kg, po qd; assay type: functional, organism-based; design: dose 10 mg/kg
Mucor = assay: Antifungal activity against Mucor species assessed as lowest dose required to total inhibition of fungal growth; assay type: functional
Phialophora verrucosa = assay: Antifungal activity against Phialophora verrucosa assessed as lowest dose required to total inhibition of fungal growth; assay type: functional
[3] = system: Trichophyton mentagrophytes; assay: Antifungal activity against Trichophyton mentagrophytes assessed as lowest dose required to total inhibition of fungal growth; assay type: functional
Candida albicans [4] = assay: Antifungal activity against Candida albicans assessed as lowest dose required to total inhibition of fungal growth; assay type: functional
Microsporum canis = assay: Antifungal activity against Microsporum canis assessed as lowest dose required to total inhibition of fungal growth; assay type: functional
Saprolegnia = assay: Antifungal activity against Saprolegnia species assessed as lowest dose required to total inhibition of fungal growth; assay type: functional
[5] = system: Erysipelothrix rhusiopathiae; assay: Antibaterial activity against Erysipelothrix insidiosa assessed as lowest dose required to total inhibition of bacterial growth; assay type: functional
Sporothrix schenckii = assay: Antifungal activity against Sporothrix schenckii assessed as lowest dose required to total inhibition of fungal growth; assay type: functional

| SMILES | GI (Aspergillus fumigatus) | GI (Candida tropicalis) | GI (Cryptococcus neoformans) | GI (Trichophyton rubrum) | GI [1] | GI (Streptococcus pyogenes) | Activity (Candida albicans [2]) | GI (Mucor) | GI (Phialophora verrucosa) | GI [3] | GI (Candida albicans [4]) | GI (Microsporum canis) | GI (Saprolegnia) | GI [5] | GI (Sporothrix schenckii) |
| --- | --- | --- | --- | --- | --- | --- | --- | --- | --- | --- | --- | --- | --- | --- | --- |
| Clc1ccc(C(CCCOc2ccc(Br)cc2)Cn2ccnc2)c(Cl)c1.O=C(O)C(=O)O (stereo not given) | >100 µg/mL | >100 µg/mL | 10 µg/mL | 10 µg/mL | 10 µg/mL | <1 µg/mL | inactive | >100 µg/mL | 100 µg/mL | <1 µg/mL | >100 µg/mL | 100 µg/mL | 100 µg/mL | <1 µg/mL | 100 µg/mL |
| Clc1ccc(OCCCC(Cn2ccnc2)c2ccc(Cl)cc2Cl)cc1.O=C(O)C(=O)O (stereo not given) | 100 µg/mL | >100 µg/mL | 10 µg/mL | <1 µg/mL | 1 µg/mL | <1 µg/mL | inactive | >100 µg/mL | 100 µg/mL | <1 µg/mL | >100 µg/mL | 10 µg/mL | 10 µg/mL | <1 µg/mL | <1 µg/mL |
| Fc1ccc(OCCC(Cn2ccnc2)c2ccc(Cl)cc2Cl)cc1.O=C(O)C(=O)O (stereo not given) | 100 µg/mL | >100 µg/mL | <1 µg/mL | <1 µg/mL | 10 µg/mL | 1 µg/mL | Active | 100 µg/mL | 100 µg/mL | <1 µg/mL | 10 µg/mL | 10 µg/mL | 10 µg/mL | <1 µg/mL | 10 µg/mL |
| Clc1ccc(OCCC(Cn2ccnc2)c2ccc(Cl)cc2Cl)c(Cl)c1.O=C(O)C(=O)O (stereo not given) | 100 µg/mL | >100 µg/mL | <1 µg/mL | <1 µg/mL | 1 µg/mL | <1 µg/mL | Active | 100 µg/mL | 100 µg/mL | <1 µg/mL | 100 µg/mL | 10 µg/mL | 100 µg/mL | <1 µg/mL | 100 µg/mL |
| Clc1ccc(C(CCOc2ccccc2Cl)Cn2ccnc2)c(Cl)c1.O=C(O)C(=O)O (stereo not given) | >100 µg/mL | >100 µg/mL | <1 µg/mL | <1 µg/mL | 1 µg/mL | <1 µg/mL | inactive | >100 µg/mL | 100 µg/mL | <1 µg/mL | >100 µg/mL | 10 µg/mL | 100 µg/mL | <1 µg/mL | 10 µg/mL |
| Clc1ccc(C(CCOc2ccccc2)Cn2ccnc2)c(Cl)c1.O=C(O)C(=O)O (stereo not given) | 100 µg/mL | 100 µg/mL | <1 µg/mL | <1 µg/mL | 10 µg/mL | 1 µg/mL | inactive | 100 µg/mL | 100 µg/mL | <1 µg/mL | 10 µg/mL | 10 µg/mL | 100 µg/mL | 1 µg/mL | 10 µg/mL |
